Measurements as given in US11179412B2, “Methods of treating conditions involving elevated inflammatory response” (University of Pittsburgh—Of the Commonwealth System of …, priority 2017, dated 2021).
Structures can show the parent of a compound that is named as a salt.

Test system: STING activation (IFNβ release) in iBMDMs
Assay: IFNβ release ELISA after STING ligand (or LPS) stimulation, iBMDMs
Type: cell-based, mouse
Settings: iBMDMs; 3′3′-cGAMP 10 μg/ml, 16 hours; compound 10 μM
Source text: Commercially available enzyme-linked immunosorbent assay (ELISA) kits were used to measure the concentrations of mouse IFNβ (Thermo Fisher Scientific) or human IFNβ (Thermo Fisher Scientific) in culture medium according to the manufacturer's instructions. […]

Compound | fold increase in IFN-β release [fold] | 3′3′-cGAMP-induced IFNβ release
6H05 | 1.18 | –
O=C(O)C(Cc1ccccc1[N+](=O)[O-])=NNc1nc(-c2ccc(Cl)c(Cl)c2)cs1 (mixture of isomers) [4EGI-1] | 4.14 | –
C[C@H]1COC2(CCN(c3nc(=O)c4cc(C(F)(F)F)cc([N+](=O)[O-])c4s3)CC2)O1 (racemic) [BTZ043 Racemate] | 0.69 | –
N[C@@H]1C[C@H]1c1ccccc1 (racemic) [Tranylcypromine (2-PCPA) HCl, Tranylcypromine] | 1.17 | –
COc1cc2c(cc1O)CC[C@@H]1[C@@H]2CC[C@]2(C)[C@@H](O)CC[C@@H]12 [2-Methoxyestradiol (2-MeOE2), 2-Methoxyestradiol] | 2.62 | –
O=[N+]([O-])C=Cc1ccc2c(c1)OCO2 [3,4-Methylenedioxy-β-nitrostyrene] | 0.26 | –
O=C(O)c1ccc(N2C(=O)/C(=C\c3ccc(-c4ccc([N+](=O)[O-])cc4)o3)C=C2c2ccccc2)cc1 [4E1 RCat] | 2.36 | –
CC(C)N(CCC(c1ccccc1)c1cc(CO)ccc1O)C(C)C (stereo not shown) [5-hydroxymethyl Tolterodine] | 1.10 | –
C=CCNC1=C2C[C@@H](C)C[C@H](OC)[C@H](O)[C@@H](C)/C=C(\C)[C@H](OC(N)=O)[C@@H](OC)/C=C\C=C(/C)C(=O)NC(=CC1=O)C2=O [17-AAG (Tanespimycin), Tanespimycin] | 1.53 | –
CN1CCc2cc3c(cc2[C@H]1[C@@H]1OC(=O)c2c1ccc1c2OCO1)OCO3 [(+)-Bicuculline] | 1.26 | –
Cl.NCc1c[nH]c(=S)n1[C@@H]1CCc2c(F)cc(F)cc2C1 [(R)-Nepicastat HCl] | 2.13 | –
C[C@H](Oc1cc(-c2cnn(C3CCNCC3)c2)cnc1N)c1c(Cl)ccc(F)c1Cl [(S)-crizotinib] | 3.05 | –
N#Cc1c(O)c2c(-c3ccc(-c4ccccc4O)cc3)csc2[nH]c1=O [A-769662] | 2.13 | –
CC1(C)CCC(CN2CCN(c3ccc(C(=O)NS(=O)(=O)c4ccc(NCC5CCOCC5)c([N+](=O)[O-])c4)c(Oc4cnc5[nH]ccc5c4)c3)CC2)=C(c2ccc(Cl)cc2)C1 [ABT-199 (GDC-0199)] | 1.78 | –
CC1(C)CCC(c2ccc(Cl)cc2)=C(CN2CCN(c3ccc(C(=O)NS(=O)(=O)c4ccc(N[C@H](CCN5CCOCC5)CSc5ccccc5)c(S(=O)(=O)C(F)(F)F)c4)cc3)CC2)C1 [ABT-263 (Navitoclax), Navitoclax] | 1.27 | –
CCN(CC)C(=O)c1ccc(C2=CC3(CCNCC3)Oc3cccc(O)c32)cc1 [ADL5859 HCl] | 0.95 | –
O=C(c1ccc(F)cc1)N1CCC[C@H](c2nc(-c3ccc(F)cc3)no2)C1 [ADX-47273] | 1.72 | –
CN(C)Cc1ccc(-c2nc3cccc4c3n2CCNC4=O)cc1 [AG-14361] | 2.41 | –
Cc1ccccc1C(C(=O)NC1CCCCC1)N(C(=O)Cn1ccnc1C)c1cccc(F)c1 (stereo not shown) [AGI-5198] | 1.13 | –
O=C(Nc1cccc(C(F)(F)F)c1)Nc1cc(S(=O)(=O)NC2CC2)ccc1-c1ccsc1 [AGI-6780] | 2.14 | –
CN1CCCCC1Cn1cc(C(=O)c2cc([N+](=O)[O-])ccc2I)c2ccccc21 (stereo not shown) [AM1241] | 8.07 | promoted
CC(=O)Nc1nc2c(Oc3cc(-c4ccc(C(F)(F)F)cc4)ncn3)cccc2s1 [AMG-517] | 1.18 | –

Compound | fold increase in IFN-β release [fold] | 3′3′-cGAMP-induced IFNβ release
C#CC[C@H](c1nc2cc(Cl)ccc2c(=O)n1Nc1ccccc1)N(CCCN)C(=O)c1cccc(Cl)c1F [ARQ 621] | 1.87 | –
O=C1NC(=O)/C(=C/c2ccc(-c3ccc(F)cc3O)o2)S1 [AS-252424] | 6.84 | promoted
Cc1cc2c(C(C)C)c(O)c(O)c(C=O)c2c(O)c1-c1c(C)cc2c(C(C)C)c(O)c(O)c(C=O)c2c1O [AT101] | 0.13 | –
CCNC(=O)c1noc(-c2cc(C(C)C)c(O)cc2O)c1-c1ccc(CN2CCOCC2)cc1 [AUY922 (NVP-AUY922)] | 0.93 | –
C=CC(=O)Nc1cccc(Nc2nc(Nc3ccc(OCCOC)cc3)ncc2F)c1 [AVL-292] | 0.16 | –
C[C@@H]1COCCN1c1cc(C2(S(C)(=O)=O)CC2)nc(-c2cccc3[nH]ccc23)n1 [AZ20] | 0.32 | –
COc1cc(N2CCN(C)CC2)ccc1Nc1nccc(-c2cn(C)c3cnccc23)n1 [AZ191] | 2.01 | –
COc1cc(OC2CCN(C)CC2)ccc1Nc1ncc2c(n1)n(C1CCCC1)c(=O)n2C [AZ 3146] | 0.10 | –
CC(=O)Nc1cccc2c1c(Sc1ccc(Cl)cc1)c(C)n2CC(=O)O [AZD1981] | 3.11 | –
COC1CCN(C(=O)c2cc(Cc3n[nH]c(=O)c4ccccc34)ccc2F)CC1 [AZD2461] | 2.12 | –
COc1cc(CCc2cc(NC(=O)c3ccc(N4CC(C)NC(C)C4)cc3)n[nH]2)cc(OC)c1 (stereo not shown) [AZD4547] | 0.35 | –
Cc1cc([C@@H](C)Nc2ccccc2C(=O)O)c2nc(N3CCOCC3)cc(=O)n2c1 [AZD6482] | 4.47 | –
CN(C)C(=O)c1ccc(S(=O)(=O)c2ccc(NC(=O)[C@@](C)(O)C(F)(F)F)c(Cl)c2)cc1 [AZD7545] | 3.45 | –
NC(=O)Nc1cc(-c2cccc(F)c2)sc1C(=O)N[C@H]1CCCNC1 [AZD7762] | 0.45 | –
C=CC(=O)Nc1cc(Nc2nccc(-c3cn(C)c4ccccc34)n2)c(OC)cc1N(C)CCN(C)C [AZD9291] | 0.85 | –
NC(=O)c1ncn([C@@H]2O[C@H](CO)[C@@H](O)[C@H]2O)c1N [Acadesine] | 1.02 | –
COc1ccc2cccc(CCNC(C)=O)c2c1 [Agomelatine] | 0.97 | –
Oc1ncnc2[nH]ncc12 [Allopurinol] | 3.15 | –
CCOC(=O)[C@H]1O[C@@H]1C(=O)N[C@@H](CC(C)C)C(=O)NCCC(C)C [Aloxistatin] | 0.31 | –
Cc1c(-c2ccnn2C)cc(C(=O)NCc2ccc(S(C)(=O)=O)cn2)c(=O)n1-c1cccc(C(F)(F)F)c1 [Alvelestat (AZD9668), Alvelestat] | 0.27 | –
CCOC(=O)C1=C(COCCN)NC(C)=C(C(=O)OC)C1c1ccccc1Cl (stereo not shown) [Amlodipine] | 1.46 | –
COc1cc(F)c(C(C)C)cc1-c1ccc(C(F)(F)F)cc1CN1C(=O)O[C@H](c2cc(C(F)(F)F)cc(C(F)(F)F)c2)[C@@H]1C [Anacetrapib (MK-0859), Anacetrapib] | 2.12 | –

Compound | fold increase in IFN-β release [fold] | 3′3′-cGAMP-induced IFNβ release
CC(C)(C#N)c1cc(Cn2cncn2)cc(C(C)(C)C#N)c1 [Anastrozole] | 0.98 | –
COc1ccc(C(=O)N2CCCC2=O)cc1 [Aniracetam] | 1.02 | –
N#CC1(c2ccc(NC(=O)c3cccnc3NCc3ccncc3)cc2)CCCC1 [Apatinib] | 0.26 | –
O=c1cc(-c2ccc(O)cc2)oc2cc(O)cc(O)c12 [Apigenin] | 0.44 | –
COc1ccc(-n2nc(C(N)=O)c3c2C(=O)N(c2ccc(N4CCCCC4=O)cc2)CC3)cc1 [Apixaban] | 2.83 | –
O=C1C(=O)N(Cc2ccc(Cl)c(Cl)c2)c2ccccc21 [Apoptosis Activator 2] | 0.17 | –
C[C@@H](O[C@H]1OCCN(Cc2n[nH]c(=O)[nH]2)[C@H]1c1ccc(F)cc1)c1cc(C(F)(F)F)cc(C(F)(F)F)c1 [Aprepitant] | 0.76 | –
O=C(O)c1cccc(-c2noc(-c3ccccc3F)n2)c1 [Ataluren (PTC124), Ataluren] | 1.74 | –
CN(C)C(=O)Nc1cccc(-c2ccc(N(C)C)cc2)c1 [Atglistatin] | 0.91 | –
CC(C)c1c(C(=O)Nc2ccccc2)c(-c2ccccc2)c(-c2ccc(F)cc2)n1CC[C@@H](O)C[C@@H](O)CC(=O)[O-].CC(C)c1c(C(=O)Nc2ccccc2)c(-c2ccccc2)c(-c2ccc(F)cc2)n1CC[C@@H](O)C[C@@H](O)CC(=O)[O-].[Ca+2] [Atorvastatin Calcium] | 1.45 | –
CC(=O)OCOC(=O)CN(CC(=O)OCOC(C)=O)c1ccccc1OCCOc1ccccc1N(CC(=O)OCOC(C)=O)CC(=O)OCOC(C)=O [BAPTA-AM] | 0.52 | –
CC[C@@H]1C(=O)N(C)c2cnc(Nc3ccc(C(=O)NC4CCN(C)CC4)cc3OC)nc2N1C1CCCC1 [BI 2536] | 0.45 | –
CC(C)CCN1c2nc(Nc3cc(F)c(O)c(F)c3)ncc2N(C)C(=O)C1C (stereo not shown) [BI-D1870] | 0.79 | –
C/C(=C\C(=O)Nc1ccccc1C(=O)O)c1ccc2ccccc2c1 [BIBR 1532] | 2.10 | –
COc1ccc2c(c1)c(CC(=O)N1CCOCC1)c(C)n2C(=O)c1ccc(Cl)cc1 [BML-190] | 0.35 | –
COc1ccnc2[nH]cc(C(=O)C(=O)N3CCN(C(=O)c4ccccc4)C[C@H]3C)c12 [BMS-378806] | 1.70 | –
Cn1c(N2CCCCS2(=O)=O)nc(C(=O)NCc2ccc(F)cc2)c(O)c1=O [BMS-707035] | 1.59 | –
O=C(Oc1cc(S(=O)(=O)c2ccccc2)ccc1[N+](=O)[O-])c1ccc(Cl)cc1 [BTB06584] | 3.11 | –
O=C(Nc1cccc(Nc2ncc(Br)c(NCCc3cnc[nH]3)n2)c1)N1CCCC1 [BX-912] | 1.86 | –
CNC(=O)[C@H](Cc1ccccc1)NC(=O)[C@H](CC(C)C)[C@H](CSc1cccs1)C(=O)NO [Batimastat (BB-94), Batimastat] | 1.20 | –
Cc1c(-c2ccc(O)cc2)n(Cc2ccc(OCCN3CCCCCC3)cc2)c2ccc(O)cc12 [Bazedoxifene HCl] | 0.15 | –
